Non-standard residues stand in square brackets, D forms with d. Residues, ends and D or L forms follow the SMILES beside them. *: point of attachment. dPhe(4-Cl) = N[C@H](Cc1ccc(Cl)cc1)C(=O)O; d2Nal = N[C@H](Cc1ccc2ccccc2c1)C(=O)O; NMeY = CN[C@@H](Cc1ccc(O)cc1)C(=O)O; d3Pal = N[C@H](Cc1cccnc1)C(=O)O; Nicotinoyl = O=C(c1cccnc1)*; NH(CH2)7NH2 = NCCCCCCCN*; NH(CH2)6NH2 = NCCCCCCN*; NHCH2CH2OH = OCCN*; X4 = CC(C)NCCN*; NHBu = CCCCN*
Biological target: T1, LH release from rat pituitary cells (Rattus norvegicus, UniProt P30969)
T1 sequence (P30969 1-327): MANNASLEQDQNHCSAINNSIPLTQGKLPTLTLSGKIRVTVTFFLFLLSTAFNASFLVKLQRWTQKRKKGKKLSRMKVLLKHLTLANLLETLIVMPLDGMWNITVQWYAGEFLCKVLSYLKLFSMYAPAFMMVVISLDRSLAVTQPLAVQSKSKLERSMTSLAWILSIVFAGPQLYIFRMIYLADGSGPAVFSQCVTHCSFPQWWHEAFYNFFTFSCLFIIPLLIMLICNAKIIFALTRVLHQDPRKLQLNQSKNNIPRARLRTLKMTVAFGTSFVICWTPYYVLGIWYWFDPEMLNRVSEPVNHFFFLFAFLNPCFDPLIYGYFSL
Assay: in vitro inhibition of LH release from rat pituitary cells (pA2)
Assay type: cell-based
Settings: pA2 = negative logarithm of antagonist concentration required to shift the response curve of the agonist leuprolide to two-fold higher concentration
Experimental: Representative compounds of the present invention were evaluated in vitro for inhibition of LH release from rat pituitary cells (pA2). Methods for the assay procedures arc described by F. Haviv, et al. J. Med. Chem., 32:2340-2344 (1989). Values of pA2 are the negative logarithms of the concentration of the particular antagonist test compound required to shift the response curve produced by the agonist leuprolide to two-fold higher concentration. Typically values of 7.0 or greater are indicative of good LHRH antagonist potency, with values of 8.0 or greater being preferred. Leuprolide LHRH agonist, disclosed and claimed in U.S. Pat. No. 4,005,063, has the structure 5-oxo-Pro^1 -His^2 -Trp^3 -Ser^4 -Tyr^5 -D-Leu^6 -Leu^7 -Arg^8 -Pro^9 -NHEt.

| SMILES | LHRH antagonist potency (pA2) |
| --- | --- |
| CCCCNC(=O)[C@H](CC(C)C)NC(=O)[C@@H](CCCCNC(=O)c1cccnc1)NC(=O)[C@H](Cc1ccc(O)cc1)N(C)C(=O)[C@H](CO)NC(=O)[C@@H](Cc1cccnc1)NC(=O)[C@@H](Cc1ccc(Cl)cc1)NC(=O)[C@@H](Cc1ccc2ccccc2c1)NC(C)=O [Example 1, NAcD2Nal-D4ClPhe-D3Pal-Ser-NMeTyr-DLys(Nic)-Leu-NH-nBu] (Ac-[d2Nal][dPhe(4-Cl)][d3Pal]S[NMeY][dK](Nicotinoyl)L-NHBu) | 7.90 |
| CC(=O)N[C@H](Cc1ccc2ccccc2c1)C(=O)N[C@H](Cc1ccc(Cl)cc1)C(=O)N[C@H](Cc1cccnc1)C(=O)N[C@@H](CO)C(=O)N(C)[C@@H](Cc1ccc(O)cc1)C(=O)N[C@H](CCCCNC(=O)c1cccnc1)C(=O)N[C@@H](CC(C)C)C(=O)NCCNC(C)C [Example 9, NAcD2Nal-D4ClPhe-D3Pal-Ser-NMeTyr-DLys(Nic)-Leu-NH--(CH2)2 NH-isopropyl] (Ac-[d2Nal][dPhe(4-Cl)][d3Pal]S[NMeY][dK](Nicotinoyl)L-X4) | 10.21 |
| CC(=O)N[C@H](Cc1ccc2ccccc2c1)C(=O)N[C@H](Cc1ccc(Cl)cc1)C(=O)N[C@H](Cc1cccnc1)C(=O)N[C@@H](CO)C(=O)N(C)[C@@H](Cc1ccc(O)cc1)C(=O)N[C@H](CCCCNC(=O)c1cccnc1)C(=O)N[C@@H](CC(C)C)C(=O)NCCCCCCN [Example 5, NAcD2Nal-D4ClPhe-D3Pal-Ser-NMeTyr-DLys(Nic)-Leu-NH--(CH2)6 NH2] (Ac-[d2Nal][dPhe(4-Cl)][d3Pal]S[NMeY][dK](Nicotinoyl)L-{NH(CH2)6NH2}) | 9.91 |
| CC(=O)N[C@H](Cc1ccc2ccccc2c1)C(=O)N[C@H](Cc1ccc(Cl)cc1)C(=O)N[C@H](Cc1cccnc1)C(=O)N[C@@H](CO)C(=O)N(C)[C@@H](Cc1ccc(O)cc1)C(=O)N[C@H](CCCCNC(=O)c1cccnc1)C(=O)N[C@@H](CC(C)C)C(=O)NCCO [Example 7, NAcD2Nal-D4ClPhe-D3Pal-Ser-NMeTyr-DLys(Nic)-Leu-NH--(CH2)2 OH] (Ac-[d2Nal][dPhe(4-Cl)][d3Pal]S[NMeY][dK](Nicotinoyl)L-NHCH2CH2OH) | 8.95 |
| CC(=O)N[C@H](Cc1ccc2ccccc2c1)C(=O)N[C@H](Cc1ccc(Cl)cc1)C(=O)N[C@H](Cc1cccnc1)C(=O)N[C@@H](CO)C(=O)N(C)[C@@H](Cc1ccc(O)cc1)C(=O)N[C@H](CCCCNC(=O)c1cccnc1)C(=O)N[C@@H](CC(C)C)C(=O)NCCCCCCCN [Example 10, NAcD2Nal-D4ClPhe-D3Pal-Ser-NMeTyr-DLys(Nic)-Leu-NH--(CH2)7 NH2] (Ac-[d2Nal][dPhe(4-Cl)][d3Pal]S[NMeY][dK](Nicotinoyl)L-{NH(CH2)7NH2}) | 8.76 |
